Reference: publication PMC6656724 (Communications Biology, 2019)

Columns and labels:
[1] = Brain tissue binding (equilibrium dialysis); type: in vitro ADME; conditions: mouse, brain homogenate
Procedure: tissues were diluted (brain: 1:10, w/v; liver: 1:10,000, w/v) with Krebs buffer containing 100 mM Tris-HCl (pH 8.1), 10 mM KCl and 1 mM EDTA, and sonicated.
80 µl of the resulting tissue homogenates were incubated for 40 min at 37 °C with 20 µl aliquots of aqueous solutions of the test compounds (or water in controls), 10 µM kynurenine, 1 mM NADPH, 3 mM glucose-6-phosphate and 1U/ml glucose-6-phosphate dehydrogenase in a total volume of 200 µl. The reaction was terminated by the addition of 50 µl of 6% perchloric acid, the denatured proteins were removed by centrifugation, and newly synthesized 3-HK was quantified by HPLC with electrochemical detection (Coulochem 5100A; ESA, Chelmsford, MA) at an oxidation potential of […].
The methodology employed was a modification of that reported previously20. […]
for 1 minute and then centrifuged at 3000 rpm in 96-well blocks for 15 minutes (Allegra X12-R, Beckman Coulter, USA). All samples were analysed by means of UPLC/MS/MS on a Xevo TQs micro Mass Spectrometer (Waters Corporation, USA).
The unbound fraction was determined as the ratio of the peak area in artificial CSF to that in brain, with correction for dilution factor according to equation (5)21, […]
((1/f ! ,!""!#$%& ) − 1) + 1/D where D = dilution factor in brain homogenate and fu,apparent is the measured free fraction of diluted brain homogenate. […]

[2] = Stability in rat hepatocytes
Procedure: Rat hepatocyte compound stability assays were performed using cryopreserved vials of rat cryopreserved hepatocytes (Life Technologies), which were thawed according to manufacturer’s instructions and resuspended in Williams Medium E (WME) containing cell maintenance supplement pack (CM4000, Life
Technologies). Hepatocytes were incubated in suspension (0.5 million cells/mL) in 48 well non-collagen coated cell culture plates for 10 minutes at 37 °C, 5%
CO2. Upon addition of an equal volume of supplemented WME containing 1 mM test compound, an aliquot of incubation solution was removed to acetonitrile containing internal standard (final concentration 0.5 mM test compound and a cell density of 0.25 million cells/mL). Similarly, aliquots were removed at 3,6,9,15,30,45,60,90 and
100 mL of 80:20 water:acetonitrile was added to all samples and the analysis plate was centrifuged for 10 minutes at room temperature prior to injection and analysis of samples by UPLC-MS/MS using a Xevo TQs micro (Waters corporation, USA). XLfit (IDBS, UK) was used to calculate the exponential decay and consequently the rate constant (k) from the ratio of peak area of test compound to internal standard at each timepoint. The rate of intrinsic clearance (CLi) was then
1.10 Rat hepatocyte stability […]
internal standard at each timepoint. The calculated hepatocyte intrinsic clearance […]

[3] = target: T1, PfKMO (Pseudomonas fluorescens, UniProt Q84HF5, C252S/C461S); assay: biochemical
T1 construct: made in house; host or cells: E. coli BL21 (DE3)
Procedure: saturating concentrations of the L-KYN and NADPH substrates. Data are plotted […]
consumption of NADPH at 340 nm upon addition of enzyme via a Cary 50 UV-Vis spectrophotometer (Agilent Technologies). Rates were determined from linear regression fits to the initial linear portion of the curves. All measurements were performed in triplicate. The IC50 values for inhibitors were obtained by plotting the percentage inhibition versus the inhibitor concentration and fitting to the Morrison equation16 (equation 1) using Origin 9.0 Software (OriginLab, Northampton, MA).
E + I + K!"" − E + I + K!"" ! − 4[E][I] where v0 is the enzyme activity without inhibitor, vi is the enzyme activity with ligand concentration [I], [E] is the enzyme concentration, [I] is the inhibitor concentration, K!"" is the apparent inhibition constant and IC = K!"" + [!] . If K!"" ≫ [!], IC ≈ […]
where Ki is the inhibition constant, [S] is the substrate concentration used in the assay and Km is the Michaelis-Menten constant17. […]
between Ki and Ki apparent values, as the conditions for measuring IC50 are different, Ki values can be used to compare with other reported KMO inhibitors.
Steady-state kinetic parameters for PfKMO were calculated by measuring initial rates […]
the observed rate of turnover (v) versus the varied substrate concentration were fitted to equation 2 using Origin 9.0 Software (OriginLab, Northampton, MA).
A B + K!! B + K!! A + K!!K!! where v is the initial rate of activity, Vmax is the maximum velocitie of the reaction, [A] and [B] are the substrate concentration, K!! and K!! are the Michaelis-Menten constant for different substrate and K!! is the inhibition (binding) constant of substrate A to the free enzyme while forming transitory complexes.18
Product inhibition studies were carried out by measuring reaction rates at varying […]
one substrate and varying concentrations of the other substrate. Inhibition studies with target compounds were carried out by measuring reaction rates at varying inhibitor concentrations at saturating concentrations of one substrate and varying concentrations of the other substrate. […]
were used to distinguish between different types of inhibition. The data were fitted to a straight line defined by the Lineweaver-Burke equation (equation 4), with the y intercept providing 1/Vmax and the x intercept giving -1/Km. […]

T1 sequence (Q84HF5 whole entry C252S/C461S): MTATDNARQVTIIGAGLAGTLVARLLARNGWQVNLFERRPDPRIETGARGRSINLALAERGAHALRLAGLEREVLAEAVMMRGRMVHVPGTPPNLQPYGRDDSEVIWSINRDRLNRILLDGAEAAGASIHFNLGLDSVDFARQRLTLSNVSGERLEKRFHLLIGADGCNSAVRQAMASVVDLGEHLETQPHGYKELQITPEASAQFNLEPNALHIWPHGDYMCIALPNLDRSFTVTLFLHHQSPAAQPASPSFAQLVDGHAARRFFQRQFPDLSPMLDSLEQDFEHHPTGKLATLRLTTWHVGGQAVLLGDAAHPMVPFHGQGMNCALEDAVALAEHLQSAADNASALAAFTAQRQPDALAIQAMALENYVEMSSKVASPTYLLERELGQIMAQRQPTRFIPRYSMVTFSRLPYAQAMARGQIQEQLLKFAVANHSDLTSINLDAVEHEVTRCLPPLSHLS

Row | Compound | fraction unbound at 5 h, 10 µg/g [1] | Mean intrinsic clearance [2] | Ki [3] | Mechanism of inhibition with respect to L-KYN ([3]; PfKMO) | Mechanism of inhibition with respect to NADPH ([3]; PfKMO)
1 | CCOC(=O)CN1C(=O)COc2cc(C)c(Cl)c(C)c21 [1b] | 0.016 | > 50 mL/min/g liver | – | – | –
2 | Cc1cc2c(c(C)c1Cl)N(Cc1nn[nH]n1)C(=O)CO2 [1h, 6-chloro-5,7-dimethyl-4-(2H-tetrazol-5-ylmethyl)-1,4-benzoxazin-3-one] | – | – | 1060 ± 40 nM | – | –
3 | Cc1cc2c(c(C)c1Cl)N(CC(=O)O)C(=O)CO2 [compound 1, (6-chloro-5,7-dimethyl-3-oxo-2,3-dihydro-4H-1,4-benzoxazin-4-yl) acetic acid] | 0.3 | 0.8 mL/min/g liver | – | competitive inhibitor | mixed type inhibitors
